# Test results from article PMC9909315, “SY-707, an ALK/FAK/IGF1R inhibitor, suppresses growth and metastasis of breast cancer cells” (Acta Biochimica et Biophysica Sinica, 2022).
# Legend:
# T47D xenograft = assay: T47D tumor xenograft study; type: in vivo, nude mice
# Experimental: Due to the strong cell growth inhibition potency of SY-707, we firstly evaluate its in vivo anti-cancer activity in T47D xenograft model mice. In this model, mice were orally administered twice a day with vehicle or SY-707 at dose of 100, 50 or 25 mg/kg after tumor size reached 150–300 mm ^3.
# Next, we evaluated the combination effects of SY-707 and paclitaxel (an approved drug for breast cancer therapy) in T47D xenograft model. Mice bearing T47D breast cancer were divided randomly into 4 groups: vehicle, SY-707 (100 mg/kg/day), paclitaxel (10 mg/kg/week), and SY-707 plus paclitaxel groups.
# T47D cells = assay: Would healing (migration) assay; type: cell-based; settings: 24 h, vs control
# Experimental: (§1) Totally, 5×10 ^5 cells were plated into each well of 6-well plates, and cultured to 70%–80% confluence, then the cell monolayer was gently and slowly scratched with a new 1-mL pipette tip across the center of the well. After scratching, the wells were gently washed with PBS twice to remove the detached cells, and replenished with fresh medium containing indicated concentration of compounds. The treated cells were allowed to grow for additional 24 h, and images were capturedunder a microscope. The migration distance were calculated and analyzed to evaluate the effects of compounds.
# MCF-7 cells = assay: Would healing (migration) assay; type: cell-based; settings: MCF-7, 24 h, vs control
# Experimental: as §1
# [1] = tested on: 4T1 breast cancer metastasis to the lung; assay: Metastasis analysis in vivo (lung nodules, 4T1 model); parameters: species or system nude mice; settings: 4T1, treatment alone: SY-707 100 mg/kg/day PO; paclitaxel 10 or 20 mg/kg/week IV; 20 days; not statistically different
# Experimental: Metastasis was detected in mouse lungs after the mice were sacrificed at the last dosing day. The lungs of each mouse were excised immediately and fixed with 4% paraformaldehyde for 24 h, then the lungs were photographed (three photographs per section per mouse) and the metastatic nodules in the lungs were manually counted and the data was analyzed for compound evaluation.
# Mice were inoculated with 4T1 cells in PBS at right and left flanks expect the normal control group ( Figure 6A), SY-707 with or without paclitaxel was administered for 20 days when tumor volumes reached 150–300 mm ^3. The mice were sacrificed on the last day of drug administration, then the lungs were collected and metastatic nodules were counted manually for the evaluation of metastasis of 4T1 breast cancer.
# The normal group (A) and the vehicle group which treatment with 20% SBE (B) were control. Mouse lungs were taken at the last day of treatment and fixed with 4% paraformaldehyde for 24 h, then the lungs were photographed and the metastatic nodules were counted manually for further analysis. *P<0.05, **P<0.01.
SMILES,"tumor growth inhibition rate (T47D xenograft; reference compound group, 21 days, dose not given)",migration distance (T47D cells),migration distance (MCF-7 cells),number of metastatic nodules in the lungs vs vehicle group [1],"tumor growth inhibition rate (T47D xenograft; combination study, paclitaxel 10 mg/kg/week alone, 24 days, P<0.05)"
"CN(c1ncccc1CNc1nc(Nc2ccc3c(c2)CC(=O)N3)ncc1C(F)(F)F)S(C)(=O)=O [PF-562271, reference compound]",20%,significant reduction of migration,significant reduction of migration,,
"CC(=O)O[C@H]1C(=O)[C@@]2(C)[C@H]([C@H](OC(=O)c3ccccc3)[C@]3(O)C[C@H](OC(=O)[C@H](O)[C@@H](NC(=O)c4ccccc4)c4ccccc4)C(C)=C1C3(C)C)[C@]1(OC(C)=O)CO[C@@H]1C[C@@H]2O [paclitaxel, reference compound]",,,,reduced the number of metastatic nodules,24%
